{"source": "patent US20080025986A1", "about": "“Methods of Treating Tnf-Mediated Disorders” (priority 2003, published 2008)", "assay_type_in_all_cases": "cell-based", "key": {"[1]": {"system": "CREB", "test": "TNF-α mediated phosphorylation/activation of transcription factor CREB", "experimental": "(§1) To explore the possibility that Pirfenidone could be used to treat NASH, the effects of pirfenidone on cells stimulated with Insulin in the presence or absence of TNF-α were examined.\n(§2) When cells were treated with Pirfenidone, TNF-α mediated Insulin resistance was ameliorated. […] More specifically, Pirfenidone decreased ERK activation by 7-fold, p38 MAPK by 2-fold and RAF activation by 2-fold (P<0.01 for all observations). In addition, Pirfenidone decreased the TNF-α mediated phosphorylation of the transcription activation factor CREB by 2-fold (P<0.01). […] In addition, Pirfenidone increased insulin-induced phosphorylation of IRS1. […] The results are depicted in FIGS. 3 and 4. FIG. 3 depicts inhibition of MAPK by pirfenidone. FIG. 4 depicts enhancement of insulin signaling by pirfenidone.\n(§3) FIG. 5 depicts various downstream signaling events that are triggered by TNF binding to a TNF receptor. TNF-mediated activation of various serine-threonine kinases are differentially affected by pirfenidone. Therefore, activation of transcription factors downstream of a given kinase will be differentially affected by pirfenidone. FIG. 6 depicts pirfenidone inhibition of TNF-induced ERK activation. FIG. 7 depicts pirfenidone inhibition of TNF-induced p38 MAPK activation. FIG. 8 depicts pirfenidone inhibition of TNF-induced activation of the transcription factor CREB. […]"}, "[2]": {"system": "p38 MAPK", "test": "Western blot, TNF-induced p38 MAPK activation in cells", "conditions": "TNF cascade, P<0.01", "experimental": "as §1, §2, §3"}, "[3]": {"system": "RAF", "test": "Western blot, TNF-induced RAF kinase activation in cells", "conditions": "TNF cascade, P<0.01", "experimental": "as §1, §2, §3"}, "[4]": {"system": "AKT", "test": "TNF-induced activation of AKT", "conditions": "FIG. 10", "excerpt": "(§4) FIG. 5 depicts various downstream signaling events that are triggered by TNF binding to a TNF receptor. TNF-mediated activation of various serine-threonine kinases are differentially affected by pirfenidone. Therefore, activation of transcription factors downstream of a given kinase will be differentially affected by pirfenidone. FIG. 6 depicts pirfenidone inhibition of TNF-induced ERK activation. FIG. 7 depicts pirfenidone inhibition of TNF-induced p38 MAPK activation. FIG. 8 depicts pirfenidone inhibition of TNF-induced activation of the transcription factor CREB. FIG. 9 depicts pirfenidone inhibition of TNF-induced activation of RAF kinase. FIG. 10 depicts pirfenidone inhibition of TNF-induced activation of AKT. FIG. 11 depicts pirfenidone potentiation of TNF-induced JNK activation."}, "[5]": {"system": "ERK", "test": "Western blot, TNF-induced ERK activation in cells", "conditions": "TNF cascade, P<0.01", "experimental": "as §1, §2, §3"}, "[6]": {"system": "ATF2", "test": "Phosphorylation of JNK-phosphorylated transcription factor ATF2", "conditions": "FIG. 12", "excerpt": "(§5) While phosphorylation of CREB is diminished due to decreased activity of p38 in the presence of pirfenidone, phosphorylation of the JNK-phosphorylated transcription factor ATF2 is potentiated in the presence of pirfenidone. FIG. 12 depicts pirfenidone potentiation of ATF2. Thus, pirfenidone potentiates TNF-induced activation of the JNK kinase pathway."}, "[7]": {"system": "IRS1", "test": "Insulin signaling in cells stimulated with insulin in the presence or absence of TNF-α", "experimental": "as §1, §2"}, "[8]": {"system": "JNK", "test": "TNF-induced JNK activation", "conditions": "FIG. 11", "excerpt": "as §4, §5"}, "[9]": {"system": "AP-1", "test": "AP-1 activation"}}}
{"smiles": "Cc1ccc(=O)n(-c2ccccc2)c1", "note": "[Pirfenidone, 5-methyl-1-phenyl-2-(1H)-pyridone]", "values": [{"measurement": "decrease of TNF-α mediated phosphorylation of CREB", "setting": "[1]; P<0.01", "value": 2, "unit": "fold"}, {"measurement": "upper limit of inhibition of CREB activation", "setting": "[1]; at maximal pirfenidone concentrations", "value": "≤ 75", "unit": "%"}, {"measurement": "decrease of p38 MAPK activation", "setting": "[2]", "value": 2, "unit": "fold"}, {"measurement": "decrease of RAF activation", "setting": "[3]", "value": 2, "unit": "fold"}, {"measurement": "effect on TNF-induced activation of AKT", "setting": "[4]", "value": "inhibition"}, {"measurement": "decrease of ERK activation", "setting": "[5]", "value": 7, "unit": "fold"}, {"measurement": "effect on phosphorylation of ATF2", "setting": "[6]", "value": "potentiated"}, {"measurement": "effect on TNF-α mediated insulin resistance", "setting": "[7]; cells treated with TNF-α", "value": "ameliorated"}, {"measurement": "effect on TNF-α-mediated inhibition of insulin-induced IRS1 tyrosine phosphorylation", "setting": "[7]; insulin plus TNF-α", "value": "blocks"}, {"measurement": "effect on insulin-induced phosphorylation of IRS1", "setting": "[7]; insulin stimulation", "value": "increased"}, {"measurement": "effect on TNF-induced JNK activation", "setting": "[8]", "value": "potentiation"}, {"measurement": "effect on AP-1 activation", "setting": "[9]", "value": "potentiates"}]}
